Measured values taken from patent US9551711B2, “Compositions and methods for detecting nitration of PKG-1α and methods of use thereof” (Augusta University Research Institute, Inc., priority 2013, dated 2017).

Key:
[1] = system: pulmonary artery smooth muscle cells (PASMC); test: PASMC cellular metabolism (alamarBlue assay); format: cell-based, lamb; conditions: WT-PKG-1α transfected PASMC; SIN-1 500 μM, 48 h
Protocol: This was determined via the alamarBlue assay (AbD Serotec, Oxford, UK). The assay is based on the reducing ability of metabolically active cells to convert the active reagent, resazurin, into a fluorescent and colorimetric indicator, resorufin. When added to cell cultures, the oxidized, resazurin enters the cytosol and is converted to the reduced, resorufin in the mitochondria by accepting electrons from NADH, NADPH, FADH2, FMNH2, as well as from the cytochromes. The non-toxic and cell permeable nature of alamarBlue permits the long-term exposure of cells. PASMC were grown on a 10 cm dish to 75% confluence, transfected with WT-PKG-1α or Y247F-PKG-1α cDNA, and incubated at 37° C. for 20 h. The cells were trypsinized and seeded onto a 24-well plate at a density of 20,000 cells per well and grown for an additional 4 h in serum and phenol free DMEM growth medium containing 1% FBS and antibiotics. The cells were then treated with or without SIN-1 (500 μM, 48 h) in the presence of 10% well volume of alamarBlue dye. The color change of the dye was determined at an excitation wavelength of 560 nm and an emission wavelength of 590 nm in a Fluoroskan Ascent plate reader. […] Cellular metabolism was expressed as follows: […]

PKG-1α [2] = test: PKG-1α protein levels in transfected PASMC (Western blot); format: cell-based, lamb; conditions: SIN-1 500 μM, 48 h
Protocol: Therefore, the effect of these events were investigated in PASMC transiently transfected with expression plasmids containing WT- and Y247F-PKG-1α. The effect of nitration on pulmonary arterial smooth muscle cell (PASMC) growth and metabolism was determined. PASMC were transiently transfected with expression plasmids containing WT-PKG-1α, Y247F-PKG-1α or pDEST40 (as a control) for 20 h. Cells were then exposed or not to SIN-1 (500 μM, 48 h) and the effect on PKG protein levels (FIG. 2A) and activity determined (FIG. 2B).

PKG-1α [3] = target: T1, PKG-1α (Homo sapiens, UniProt Q13976, Y247F); test: PKG catalytic activity, Michaelis-Menten kinetics for cGMP; format: biochemical; set-up: made in house; host or cells: HEK-293T; conditions: Y247F mutant upon SIN-1 treatment
T1 sequence (Q13976 2-671 Y247F): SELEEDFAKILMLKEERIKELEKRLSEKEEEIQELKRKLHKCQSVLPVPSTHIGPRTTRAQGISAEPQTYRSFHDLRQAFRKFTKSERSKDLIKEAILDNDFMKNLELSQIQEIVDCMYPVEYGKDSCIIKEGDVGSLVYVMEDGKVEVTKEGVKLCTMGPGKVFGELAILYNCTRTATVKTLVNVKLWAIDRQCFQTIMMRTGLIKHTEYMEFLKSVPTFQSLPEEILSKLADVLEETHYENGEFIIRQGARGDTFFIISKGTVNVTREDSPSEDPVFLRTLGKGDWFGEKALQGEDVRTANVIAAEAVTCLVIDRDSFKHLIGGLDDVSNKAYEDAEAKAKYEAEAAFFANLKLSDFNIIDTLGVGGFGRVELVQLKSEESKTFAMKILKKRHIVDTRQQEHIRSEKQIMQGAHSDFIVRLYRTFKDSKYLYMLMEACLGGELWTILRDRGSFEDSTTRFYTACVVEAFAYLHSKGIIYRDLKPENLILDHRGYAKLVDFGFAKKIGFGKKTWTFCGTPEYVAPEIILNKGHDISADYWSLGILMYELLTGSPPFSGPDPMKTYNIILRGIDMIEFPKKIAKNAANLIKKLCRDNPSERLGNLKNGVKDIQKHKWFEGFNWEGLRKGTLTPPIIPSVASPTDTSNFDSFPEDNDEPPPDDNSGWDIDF
Protocol: Total PKG activity was determined using a non-radioactive immunoassay in cell lysates, according to the manufacturer's directions. Briefly, protein samples were diluted in kinase reaction buffer containing Mg^2+ and ATP (125 μM) in the presence or absence of 8-Br cGMP (10 μM) and incubated in a 96 well plate pre-coated with a PKG substrate containing threonine residues phosphorylated by PKG.
After incubation for 30 min at 30° C. to allow the phosphorylation of the bound substrate, an HRP conjugated anti-phosphothreonine specific antibody was added to convert a chromogenic substrate to a colorimetric substrate that was subsequently read spectrophotometrically at 450 nm. The change in absorbance reflected the relative activity of PKG in the sample. The results were reported as pmols of phosphate incorporated into the GST-G substrate fusion protein by active PKG in the sample in the presence or absence of cGMP (10 μM) per minute at 30° C. per μg of protein (pmol/min/μg). […] The kinetic constants were determined using nonlinear regression (curve fit) analysis (GraphPad Prism Software Inc.).
To determine the Michaelis-Menten constant (Km) for cGMP, the kinase assay was performed, as mentioned above; however, the cGMP concentration was titrated from 0-10 μM, while the ATP concentration remained constant at 125 μM.

change of Michaelis-Menten constant (Km) for cGMP (PKG-1α [3]): no significant change
Substance: 3-morpholinosydnonimine N-ethylcarbamide [SIN-1]
metabolism [1]: stimulated | PKG-1α protein levels (PKG-1α [2]): no effect
